These results are taken from patent publication US9861099B2, “Composition for enhancing plant disease control effect of monosaccharide” (MITSUI CHEMICALS AGRO, INC., priority 2013, dated 2018).

The test system of the first assay is Pseudoperonospora cubensis. Briefly: Cucumber downy mildew (CDM) control test. To be noted: Table 8: D-tagatose liquid preparation with assistant (5 parts), 10-fold dilution (D-tagatose 0.5%+assistant 0.5%); improvement vs D-tagatose only. The class given is in vivo.
As to `OC[C@H]1O[C@H](O[C@H]2[C@H](O)[C@@H](O)C(O)O[C@@H]2CO)[C@H](O)[C@@H](O)[C@@H]1O` (mixture of isomers) [Maltose], the “Evaluation Score CDM” value is 1 (Improvement in preventive value of 1 to less than 10). On the same count and under the same terms, the value for `C[N+](C)(C)CC(O)CC(=O)[O-]` (racemic) [DL-carnitine] was 2 (Improvement in preventive value of 10 to less than 20). In the case of `CC(=O)O` [Acetic acid], the “Evaluation Score CDM” value is 1 (Improvement in preventive value of 1 to less than 10).

`Nc1ncnc2[nH]cnc12` [Adenine]: the “Evaluation Score CDM” value came to 0.

Turning to `Nc1ncnc2c1ncn2[C@@H]1O[C@H](CO)[C@@H](O)[C@H]1O` [Adenosine], the “Evaluation Score CDM” value came to 0. As for `OC[C@@H](O)[C@@H](O)[C@@H](O)[C@@H](O)CO` [Allitol], the “Evaluation Score CDM” value is 2 (Improvement in preventive value of 10 to less than 20). Consider `O=C[C@H](O)[C@@H](O)[C@H](O[C@@H]1O[C@H](CO)[C@@H](O)[C@H](O)[C@H]1O)[C@H](O)CO` [Cellobiose], for which the “Evaluation Score CDM” value is on record as 1 (Improvement in preventive value of 1 to less than 10). The same measure, in the same setting: the value for `Nc1ccn([C@@H]2O[C@H](CO)[C@@H](O)[C@H]2O)c(=O)n1` [Cytidine] was 1 (Improvement in preventive value of 1 to less than 10); that for `Nc1cc[nH]c(=O)n1` [Cytosine] was 0; that for `OC[C@H]1OC(O)[C@@H](O)[C@H](O)[C@@H]1O` (stereo partly drawn) [D-altrose] was 4 (Improvement in preventive value of 30 to less than 40). For the compound `O=C[C@@H](O)[C@H](O)[C@H](O)CO` [D-arabinose], the “Evaluation Score CDM” value was 1 (Improvement in preventive value of 1 to less than 10). Take `O=C(CO)[C@@H](O)[C@H](O)[C@H](O)CO` [D-fructose]: the “Evaluation Score CDM” value is reported as 2 (Improvement in preventive value of 10 to less than 20). Regarding `C[C@@H](O)[C@H](O)[C@H](O)[C@@H](O)C=O` [D-fucose], the “Evaluation Score CDM” value was 2 (Improvement in preventive value of 10 to less than 20). Turning to `O=C[C@H](O)[C@@H](O)[C@@H](O)[C@H](O)C(=O)O` [D-galacturonic acid], the “Evaluation Score CDM” value is 3 (Improvement in preventive value of 20 to less than 30).

Consider `O=C1O[C@H](CO)[C@@H](O)[C@H](O)[C@H]1O` [D-gluconolactone], for which the “Evaluation Score CDM” value was 2 (Improvement in preventive value of 10 to less than 20). On the same count and under the same terms, the value for `O=C[C@H](O)CO` [D-glyceraldehyde] was 4 (Improvement in preventive value of 30 to less than 40). As for `OC[C@@H](O)[C@@H](O)[C@H](O)[C@H](O)CO` [D-mannitol], the “Evaluation Score CDM” value was 1 (Improvement in preventive value of 1 to less than 10). Take `O=C[C@H](O)[C@H](O)[C@H](O)CO` [D-ribose]: the “Evaluation Score CDM” value is on record as 2 (Improvement in preventive value of 10 to less than 20). Turning to `OC[C@@H](O)[C@@H](O)[C@H](O)[C@@H](O)CO` [D-sorbitol], the “Evaluation Score CDM” value is reported as 1 (Improvement in preventive value of 1 to less than 10). For `O=C[C@H](O)[C@@H](O)[C@H](O)CO` [D-xylose], the “Evaluation Score CDM” value is on record as 1 (Improvement in preventive value of 1 to less than 10). Same read-out and setting: the figure for `O=C(CO)[C@@H](O)[C@H](O)CO` [D-xylulose] is 1 (Improvement in preventive value of 1 to less than 10). On the same count and under the same terms, the figure for `O=CC[C@H](O)[C@H](O)CO` [Formula 2-deoxy-D-ribose, 2-deoxy-D-ribose] is 4 (Improvement in preventive value of 30 to less than 40); for `Nc1nc2c(ncn2[C@@H]2O[C@H](CO)[C@@H](O)[C@H]2O)c(=O)[nH]1` [Guanosine] it is 0; for `NC(=O)C[C@H](N)C(=O)O` [L-asparagine] it is 1 (Improvement in preventive value of 1 to less than 10). For `N[C@@H](CS)C(=O)O` [L-cysteine], the “Evaluation Score CDM” value is 3 (Improvement in preventive value of 20 to less than 30). As for `C[C@@H]1OC(O)[C@@H](O)[C@H](O)[C@@H]1O` (stereo partly drawn) [L-fucose], the “Evaluation Score CDM” value was 2 (Improvement in preventive value of 10 to less than 20). The same measure, in the same setting: the value for `NC(=O)CC[C@H](N)C(=O)O` [L-glutamine] was 1 (Improvement in preventive value of 1 to less than 10). For `N[C@@H](Cc1c[nH]cn1)C(=O)O` [L-histidine], the “Evaluation Score CDM” value is listed as 3 (Improvement in preventive value of 20 to less than 30).

In the case of `CC[C@H](C)[C@H](N)C(=O)O` [L-isoleucine], the “Evaluation Score CDM” value was 1 (Improvement in preventive value of 1 to less than 10). Turning to `CSCC[C@H](N)C(=O)O` [L-methionine], the “Evaluation Score CDM” value is reported as 2 (Improvement in preventive value of 10 to less than 20). Consider `N[C@@H](Cc1ccccc1)C(=O)O` [L-phenylalanine], for which the “Evaluation Score CDM” value is 3 (Improvement in preventive value of 20 to less than 30). On to `O=C(O)[C@@H]1CCCN1` [L-proline], for which the “Evaluation Score CDM” value was 1 (Improvement in preventive value of 1 to less than 10). Take `C[C@H](O)[C@H](O)[C@@H](O)[C@@H](O)C=O` [L-rhamnose]: the “Evaluation Score CDM” value was 2 (Improvement in preventive value of 10 to less than 20).

For `N[C@@H](CO)C(=O)O` [L-serine], the “Evaluation Score CDM” value is listed as 1 (Improvement in preventive value of 1 to less than 10).

On to `C[C@@H](O)[C@H](N)C(=O)O` [L-threonine], for which the “Evaluation Score CDM” value is 1 (Improvement in preventive value of 1 to less than 10). For the compound `CC(O)C(=O)O` (centres unmarked) [Lactic acid], the “Evaluation Score CDM” value stood at 0. For `O=C(O)CC(=O)O` [Malonic acid], the “Evaluation Score CDM” value was found to be 0. As for `O=C(CO)[C@@H](O)[C@H](O[C@H]1O[C@H](CO)[C@@H](O)[C@H](O)[C@H]1O)[C@H](O)CO` [Maltulose], the “Evaluation Score CDM” value is reported as 1 (Improvement in preventive value of 1 to less than 10). Still for that read-out and setting: the figure for `OC[C@@H](O)[C@@H](O)CO` [Meso-erythritol] is 3 (Improvement in preventive value of 20 to less than 30); for `OC[C@H]1O[C@H](OC[C@H]2O[C@H](O[C@]3(CO)O[C@H](CO)[C@@H](O)[C@@H]3O)[C@H](O)[C@@H](O)[C@@H]2O)[C@H](O)[C@@H](O)[C@H]1O` [Raffinose] it is 4 (Improvement in preventive value of 30 to less than 40); for `O=C[C@H](O)[C@@H](O)[C@H](O)[C@H](O)C(=O)[O-].[Na+]` [Sodium D-glucuronate] it is 1 (Improvement in preventive value of 1 to less than 10). As to `OC[C@H]1O[C@@](CO)(O[C@H]2O[C@H](CO)[C@@H](O)[C@H](O)[C@H]2O)[C@@H](O)[C@@H]1O` [Sucrose], the “Evaluation Score CDM” value is reported as 1 (Improvement in preventive value of 1 to less than 10).

As for `OC[C@H]1O[C@H](O[C@H]2O[C@H](CO)[C@@H](O)[C@H](O)[C@H]2O)[C@H](O)[C@@H](O)[C@@H]1O` [Trehalose], the “Evaluation Score CDM” value is 3 (Improvement in preventive value of 20 to less than 30). For `O=c1cc[nH]c(=O)[nH]1` [Uracil], the “Evaluation Score CDM” value is 1 (Improvement in preventive value of 1 to less than 10).

Still in this assay, the particulars now being: in vivo.
As to `O=C(O)c1ccccc1` [Benzoic acid], the “Evaluation Score CDM” value amounted to 0. For the compound `O=C(O)CCCC(=O)O` [Glutaric acid], the “Evaluation Score CDM” value was found to be 0. The same measure, in the same setting: the figure for `Nc1nc2nc[nH]c2c(=O)[nH]1` [Guanine] is 0.
